Results as given in US20230173087A1, “ANTIBODY DRUG CONJUGATES WITH CLEAVABLE LINKERS” (Heidelberg Pharma Research GmbH, priority 2019, published 2023).
pKd: −log10 of the molar value.

Key:
[1] = tested on: SKBR-3 (breast cancer) cells; experiment: Cytotoxicity, chemiluminescent BrdU-ELISA incorporation assay on SKBR-3 cells; format: cell-based; settings: as antibody conjugate
Description: Cytotoxic activity of Trastuzumab (Anti-Her2neu-specific antibody)-amatoxin conjugates was evaluated in vitro on HER2-positive tumor cell lines SKBR-3 (breast cancer), NCI-N87 (gastric cancer), and JIMT-1 (breast cancer) using a chemiluminescent BrdU-ELISA incorporation assay (Roche).

RNA polymerase II = RNA polymerase II (Homo sapiens, UniProt P24928+P30876); settings: read-out: KD of complex between amanitin and RNA polymerase II; cited from earlier work

Row | Compound | effectiveness in vitro compared to HDP 30.1699 [1] | pKd (RNA polymerase II)
1 | CC[C@H](C)[C@@H]1NC(=O)CNC(=O)C2Cc3c([nH]c4cc(O)ccc34)[S@+]([O-])CC(NC(=O)CNC1=O)C(=O)NC(CC(N)=O)C(=O)N1CC(O)CC1C(=O)N[C@@H]([C@@H](C)[C@@H]1COC(c3ccc(NC(=O)[C@H](C)NC(=O)C(NC(=O)CCN4C(=O)C=CC4=O)C(C)C)cc3)O1)C(=O)N2 (stereo partly drawn) [HDP 30.2684, α-Amanitin-(BMP-Val-Ala-4-amino-benzylidenacetal)] | as effective as HDP 30.1699 | 
2 | amanitin |  | 8.52
